# Source: ChEMBL document CHEMBL1201862, “PubChem BioAssay data set” (2004)
# Active and inactive are the calls of the source. Rule as the data show it: actives have a measured IC50 and inactives only a lower limit.
# Target: Envelope glycoprotein gp160 (Human immunodeficiency virus 1, UniProt Q6QLK5)
# Assay: cell-free HIV fusion peptide-binding blockers – biochemical, uHTS, fluorescence dequenching, […] (AID 1986)
# Chain of Envelope glycoprotein gp160 (Q6QLK5 whole entry, the tested form may be a part): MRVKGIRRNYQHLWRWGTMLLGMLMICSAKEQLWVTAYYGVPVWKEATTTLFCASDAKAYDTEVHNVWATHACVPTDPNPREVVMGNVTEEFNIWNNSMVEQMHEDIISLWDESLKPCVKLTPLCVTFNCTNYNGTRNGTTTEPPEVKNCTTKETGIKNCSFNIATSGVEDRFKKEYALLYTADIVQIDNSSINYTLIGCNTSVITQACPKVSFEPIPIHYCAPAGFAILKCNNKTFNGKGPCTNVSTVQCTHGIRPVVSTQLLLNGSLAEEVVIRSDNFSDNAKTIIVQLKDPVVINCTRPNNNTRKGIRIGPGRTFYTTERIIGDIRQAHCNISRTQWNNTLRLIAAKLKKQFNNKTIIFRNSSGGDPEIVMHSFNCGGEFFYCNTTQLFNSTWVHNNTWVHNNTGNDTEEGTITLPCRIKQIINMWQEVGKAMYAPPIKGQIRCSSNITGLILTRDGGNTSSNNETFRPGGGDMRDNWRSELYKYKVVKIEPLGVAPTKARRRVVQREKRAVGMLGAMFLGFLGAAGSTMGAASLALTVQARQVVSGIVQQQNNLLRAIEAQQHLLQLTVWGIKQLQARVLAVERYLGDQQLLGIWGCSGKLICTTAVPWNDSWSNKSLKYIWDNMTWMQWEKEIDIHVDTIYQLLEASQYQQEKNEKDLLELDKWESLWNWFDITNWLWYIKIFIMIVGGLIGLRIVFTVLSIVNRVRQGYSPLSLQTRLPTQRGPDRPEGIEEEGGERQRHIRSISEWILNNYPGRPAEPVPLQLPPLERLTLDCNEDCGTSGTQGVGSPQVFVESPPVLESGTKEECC
row,Compound,IC50
1,O=C1NN(c2ccccc2)C(=O)/C1=C\c1cccc(OC(=O)c2cccs2)c1,33.9 µM (active)
2,CC1(c2ccccc2)CC(C)(C)N2C(=O)/C(=C3\SC(=S)NC3=O)c3cccc1c32 (centres undefined),83.8 µM (active)
3,O=C(COc1ccc(Cl)cc1)Nc1cc(NC(=O)COc2ccc(Cl)cc2)cc(C(=O)O)c1,26.4 µM (active)
4,Cc1cc(Cl)ccc1OC(C)C(=O)Nc1ccc(C(=O)Nc2ccccc2C(=O)O)cc1 (centres undefined),13.1 µM (active)
